In patent US20230043863A1, “HETEROAROMATIC DERIVATIVES FOR USE AS REGULATOR, PREPARATION METHOD THEREFOR AND USE THEREOF” (JIANGSU HANSOH PHARMACEUTICAL GROUP CO., LTD., priority 2018, published 2023):

How the values were obtained:
JAK1 = JAK1 (Homo sapiens, UniProt P23458); assay: JAK kinase activity inhibition, TR-FRET (JAK1); format: biochemical; settings: TR-FRET kinase assay
Outline: (§1)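 Recombinant kinase at 0.1-20 nM, peptide substrate, ATP; room temperature, 0.5-5 h; EDTA stop, labeled-antibody TR-FRET readout; IC50 by curve fit.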

[1] = tested on: JAK-STAT signal pathway of U266 cells; assay: Inhibition of cellular JAK-STAT signal pathway (STAT3 phosphorylation) in U266 cells; format: cell-based, human; settings: Homo sapiens, U-266, INF-a 1000 U/mL stimulation
Outline: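 U266 cells (100-300 K/well) preincubated 2 h at room temperature with serially diluted compound, then stimulated 15 min with IFN-α at 1000 U/mL final. After lysis, STAT3 phosphorylation read by LANCE Ultra TR-FRET (Eu antibody 0.5 nM, ULight antibody 5 nM, overnight) at 665 nm; IC50 from 4-parameter fit of inhibition versus DMSO and negative controls.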

TYK2 = TYK2 (Homo sapiens, UniProt P29597); assay: JAK kinase activity inhibition, TR-FRET (TYK2); format: biochemical; settings: TR-FRET kinase assay
Outline: as §1

JAK3 = biological target: T1, JAK3 (Homo sapiens, UniProt P52333); assay: JAK kinase activity inhibition, TR-FRET (JAK3); format: biochemical; settings: TR-FRET kinase assay
T1 sequence (P52333 1-1124): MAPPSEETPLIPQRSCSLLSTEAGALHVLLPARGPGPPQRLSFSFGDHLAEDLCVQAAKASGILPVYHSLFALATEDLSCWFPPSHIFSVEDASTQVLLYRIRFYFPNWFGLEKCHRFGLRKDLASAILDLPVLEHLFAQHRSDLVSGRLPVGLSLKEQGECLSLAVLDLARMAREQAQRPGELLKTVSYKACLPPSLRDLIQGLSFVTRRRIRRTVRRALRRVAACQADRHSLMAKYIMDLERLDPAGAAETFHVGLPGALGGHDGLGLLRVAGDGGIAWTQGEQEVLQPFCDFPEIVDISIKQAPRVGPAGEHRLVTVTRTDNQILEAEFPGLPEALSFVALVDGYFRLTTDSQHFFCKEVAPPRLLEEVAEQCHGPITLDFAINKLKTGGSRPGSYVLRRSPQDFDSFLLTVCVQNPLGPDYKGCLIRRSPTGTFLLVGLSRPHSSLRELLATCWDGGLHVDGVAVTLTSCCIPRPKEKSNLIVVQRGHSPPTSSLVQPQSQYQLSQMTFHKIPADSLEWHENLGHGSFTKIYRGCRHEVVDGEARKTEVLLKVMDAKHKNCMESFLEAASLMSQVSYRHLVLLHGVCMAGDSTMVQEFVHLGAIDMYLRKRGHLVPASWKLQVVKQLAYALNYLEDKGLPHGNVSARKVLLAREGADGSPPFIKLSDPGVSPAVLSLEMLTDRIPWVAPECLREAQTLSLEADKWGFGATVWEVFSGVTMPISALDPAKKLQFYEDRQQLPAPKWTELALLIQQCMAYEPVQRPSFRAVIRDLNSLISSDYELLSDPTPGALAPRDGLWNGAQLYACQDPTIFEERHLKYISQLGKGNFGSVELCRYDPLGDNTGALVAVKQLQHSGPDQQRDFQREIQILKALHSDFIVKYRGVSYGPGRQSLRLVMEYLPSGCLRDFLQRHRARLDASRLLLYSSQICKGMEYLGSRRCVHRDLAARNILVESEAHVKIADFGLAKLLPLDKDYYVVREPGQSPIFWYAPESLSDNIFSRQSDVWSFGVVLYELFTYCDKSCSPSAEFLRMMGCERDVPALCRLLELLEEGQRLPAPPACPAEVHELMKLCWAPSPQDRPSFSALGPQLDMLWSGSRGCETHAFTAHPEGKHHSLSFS
Protocol: (§2) Experimental objective: The objective of this test is to test the inhibitory effect of the compound on JAK kinase activity.
(§3) Experimental method: the fluorescence resonance energy transfer (TR-FRET) method was used to test the inhibitory effect of the compound on JAK kinase activity, and the half inhibitory concentration IC50 of the compound on JAK kinase activity was obtained.
(§4) Kinase reaction was carried out in a white 384-well plate (PerkinElmer). 1-5 μL of different concentrations of the compound diluted with DMSO and ddH2O was added into each well, and 1-5 μL of the corresponding solvent was added to the positive control wells, followed by addition of 0.1-20 nM JAK kinase solution diluted with 1-5 μL of kinase buffer (HEPES 50-250 mM, MgCl2 5-20 mM, etc.) was added to each well. 1-5 μL of kinase buffer was added to the negative control well. 1-5 μL of substrate mixture containing peptide substrate and ATP was added. The plate was incubated at room temperature for 0.5-5 hours. […], EDTA and detection solution containing labeled antibody was added, and then the plate was incubated at room temperature for another 1-24 hours. The fluorescence signal value at about 620 nm and 665 nm of each well was measured by BioTek Synergy H1 plate reader, and the inhibition rate was calculated by the fluorescence signal value. According to the inhibition rate of different concentrations, the IC50 of the compound was obtained by curve fitting.
(§5) The percentage inhibition data of the wells treated with the compound was calculated with the positive control wells (DMSO control wells) and negative control wells (no kinase added) on the plate {% inhibition rate=100-[(test compound value-negative control value)]/(Positive control value-negative control value)×100}. IC50 value was calculated by using GraphPad prism to fit the data of different concentrations and corresponding percentage inhibition rates to a 4-parameter non-linear logic formula.

JAK2 = JAK2 (Homo sapiens, UniProt O60674); assay: JAK kinase activity inhibition, TR-FRET (JAK2); format: biochemical; settings: TR-FRET kinase assay
Protocol: as §2, §3, §4, §5

Sequence of JAK2 (O60674 whole entry): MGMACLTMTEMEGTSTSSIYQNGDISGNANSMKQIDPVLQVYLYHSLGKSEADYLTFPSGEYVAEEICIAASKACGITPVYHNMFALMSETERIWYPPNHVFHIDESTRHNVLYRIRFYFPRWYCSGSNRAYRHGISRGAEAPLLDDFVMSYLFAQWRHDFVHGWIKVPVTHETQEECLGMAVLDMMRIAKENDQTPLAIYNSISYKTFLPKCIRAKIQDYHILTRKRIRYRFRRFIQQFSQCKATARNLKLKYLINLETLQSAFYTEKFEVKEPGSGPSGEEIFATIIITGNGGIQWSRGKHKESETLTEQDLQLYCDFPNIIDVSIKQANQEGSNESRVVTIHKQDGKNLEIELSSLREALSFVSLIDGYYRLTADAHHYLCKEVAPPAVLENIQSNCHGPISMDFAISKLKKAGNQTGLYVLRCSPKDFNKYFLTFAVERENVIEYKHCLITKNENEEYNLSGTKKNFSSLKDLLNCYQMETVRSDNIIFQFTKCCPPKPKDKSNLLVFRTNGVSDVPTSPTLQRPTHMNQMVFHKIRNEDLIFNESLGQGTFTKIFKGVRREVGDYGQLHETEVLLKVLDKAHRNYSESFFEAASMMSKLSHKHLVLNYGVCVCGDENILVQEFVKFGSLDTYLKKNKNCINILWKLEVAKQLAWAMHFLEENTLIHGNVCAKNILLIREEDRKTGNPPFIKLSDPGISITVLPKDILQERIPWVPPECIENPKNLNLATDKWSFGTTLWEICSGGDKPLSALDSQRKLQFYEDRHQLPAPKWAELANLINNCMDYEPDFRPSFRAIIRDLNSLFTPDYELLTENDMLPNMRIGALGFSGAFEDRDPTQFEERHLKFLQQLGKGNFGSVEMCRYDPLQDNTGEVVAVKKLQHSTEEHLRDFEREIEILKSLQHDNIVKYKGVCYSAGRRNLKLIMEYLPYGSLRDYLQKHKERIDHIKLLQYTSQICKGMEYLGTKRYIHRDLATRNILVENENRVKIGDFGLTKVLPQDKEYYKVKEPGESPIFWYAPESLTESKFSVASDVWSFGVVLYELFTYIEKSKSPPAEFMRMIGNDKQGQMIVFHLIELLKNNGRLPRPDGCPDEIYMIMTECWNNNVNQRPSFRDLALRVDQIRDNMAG
Sequence of TYK2 (P29597 whole entry): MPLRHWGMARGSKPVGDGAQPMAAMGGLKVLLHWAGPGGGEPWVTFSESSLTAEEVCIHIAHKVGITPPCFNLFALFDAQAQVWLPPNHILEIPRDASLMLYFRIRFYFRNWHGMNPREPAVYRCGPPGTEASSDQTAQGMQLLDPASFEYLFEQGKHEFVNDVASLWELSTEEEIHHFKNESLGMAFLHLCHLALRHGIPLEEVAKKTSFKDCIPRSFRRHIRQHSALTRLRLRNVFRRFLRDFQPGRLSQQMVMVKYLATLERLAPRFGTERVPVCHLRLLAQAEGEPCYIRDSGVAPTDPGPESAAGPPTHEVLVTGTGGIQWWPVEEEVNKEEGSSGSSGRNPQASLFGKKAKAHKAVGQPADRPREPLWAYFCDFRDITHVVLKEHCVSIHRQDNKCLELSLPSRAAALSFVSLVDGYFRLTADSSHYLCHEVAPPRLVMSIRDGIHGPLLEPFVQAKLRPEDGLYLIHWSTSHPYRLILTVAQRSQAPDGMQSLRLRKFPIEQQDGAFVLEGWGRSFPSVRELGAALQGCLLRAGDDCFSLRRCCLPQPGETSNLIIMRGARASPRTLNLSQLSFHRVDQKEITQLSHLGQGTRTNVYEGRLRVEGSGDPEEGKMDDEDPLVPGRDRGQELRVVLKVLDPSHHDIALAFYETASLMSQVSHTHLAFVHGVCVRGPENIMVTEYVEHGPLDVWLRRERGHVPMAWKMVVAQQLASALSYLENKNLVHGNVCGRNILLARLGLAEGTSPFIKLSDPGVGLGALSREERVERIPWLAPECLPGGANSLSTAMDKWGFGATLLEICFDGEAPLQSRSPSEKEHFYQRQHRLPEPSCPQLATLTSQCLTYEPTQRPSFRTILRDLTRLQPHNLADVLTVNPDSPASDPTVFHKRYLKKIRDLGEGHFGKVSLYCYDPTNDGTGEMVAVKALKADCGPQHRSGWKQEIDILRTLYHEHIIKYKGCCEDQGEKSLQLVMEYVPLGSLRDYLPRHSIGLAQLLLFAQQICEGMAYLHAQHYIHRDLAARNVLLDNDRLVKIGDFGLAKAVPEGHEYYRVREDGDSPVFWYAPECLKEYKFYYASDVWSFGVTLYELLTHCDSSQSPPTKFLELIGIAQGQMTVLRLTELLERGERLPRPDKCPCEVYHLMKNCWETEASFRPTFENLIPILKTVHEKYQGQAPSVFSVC
Sequence of JAK1 (P23458 whole entry): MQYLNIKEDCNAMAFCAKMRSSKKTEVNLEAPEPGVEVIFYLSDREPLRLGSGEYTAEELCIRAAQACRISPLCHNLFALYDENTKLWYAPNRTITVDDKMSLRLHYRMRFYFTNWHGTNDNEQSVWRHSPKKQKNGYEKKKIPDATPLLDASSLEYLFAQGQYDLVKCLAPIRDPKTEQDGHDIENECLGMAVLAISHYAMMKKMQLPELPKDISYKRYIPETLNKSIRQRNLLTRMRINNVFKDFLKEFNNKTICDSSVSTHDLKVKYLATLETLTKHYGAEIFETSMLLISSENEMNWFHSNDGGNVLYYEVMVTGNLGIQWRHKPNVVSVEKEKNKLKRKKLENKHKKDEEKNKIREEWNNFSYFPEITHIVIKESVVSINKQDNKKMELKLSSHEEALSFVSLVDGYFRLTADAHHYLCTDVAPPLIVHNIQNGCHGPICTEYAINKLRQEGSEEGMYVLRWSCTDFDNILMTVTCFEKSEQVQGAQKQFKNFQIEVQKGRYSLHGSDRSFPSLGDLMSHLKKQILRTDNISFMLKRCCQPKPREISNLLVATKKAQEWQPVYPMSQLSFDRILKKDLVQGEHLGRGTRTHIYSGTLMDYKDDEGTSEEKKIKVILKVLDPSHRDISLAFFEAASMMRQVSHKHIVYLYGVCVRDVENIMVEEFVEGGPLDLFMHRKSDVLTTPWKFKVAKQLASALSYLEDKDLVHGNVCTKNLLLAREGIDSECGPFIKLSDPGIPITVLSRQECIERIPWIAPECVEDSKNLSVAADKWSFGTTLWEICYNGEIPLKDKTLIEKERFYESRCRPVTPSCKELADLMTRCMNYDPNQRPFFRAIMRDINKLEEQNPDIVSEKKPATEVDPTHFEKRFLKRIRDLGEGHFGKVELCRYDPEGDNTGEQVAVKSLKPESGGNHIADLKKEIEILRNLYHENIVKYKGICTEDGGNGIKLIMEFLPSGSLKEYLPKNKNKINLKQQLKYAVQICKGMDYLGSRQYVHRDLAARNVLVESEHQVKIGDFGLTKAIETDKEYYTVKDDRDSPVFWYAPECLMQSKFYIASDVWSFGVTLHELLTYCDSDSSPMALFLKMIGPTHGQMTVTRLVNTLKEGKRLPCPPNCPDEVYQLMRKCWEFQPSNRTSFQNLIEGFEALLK

In the case of `Cc1cc(Nc2nc(N(C)[C@@H]3C[C@H]4CCC[C@@H](C3)N4S(=O)(=O)N3CC(C#N)C3)nc3sccc23)n[nH]1` [Embodiment 239, 1-(((3-exo)-3-(methyl(4-((5-methyl-1H-pyrazol-3-yl)amino)thieno[2,3-d]pyrimidin-2-yl)amino)-9-azabicyclo[3.3.1]non-9-yl)sulfonyl)azacyclobutane-3-nitrile], the IC50 (JAK1) is reported as 0.13 nM, the IC50 [1] is reported as 39 nM and the IC50 (TYK2) is reported as 0.22 nM. It also gave an IC50 (JAK3) of 3.11 nM and an IC50 (JAK2) of 1.25 nM.

`Cc1cc(Nc2nc(N[C@@H]3C[C@H]4CCC[C@@H](C3)N4C(=O)CN(C)C)nc3sccc23)n[nH]1` [Embodiment 242, 2-(dimethylamine)-1-((3-exo)-3-((4-((5-methyl-1H-pyrazol-3-yl)amino)thieno[2,3-d]pyrimidin-2-yl)amino)-9-azabicyclo[3.3.1]non-9-yl)ethane-1-one] gave an IC50 (JAK1) of 0.21 nM, an IC50 [1] of 0.24 nM and an IC50 (TYK2) of 0.89 nM. It also gave an IC50 (JAK3) of 6.58 nM and an IC50 (JAK2) of 0.85 nM.

`Cc1cc(Nc2nc(N[C@@H]3C[C@H]4CCC[C@@H](C3)N4S(=O)(=O)N3CC(C#N)C3)nc3ccccc23)n[nH]1` [Embodiment 217] was tested, and the IC50 (JAK1) was 0.04 nM, the IC50 [1] was 36.7 nM and the IC50 (TYK2) was 0.1 nM. For the same molecule, the IC50 (JAK3) was 1.92 nM and the IC50 (JAK2) was 1.61 nM.

Work on `Cc1cc(Nc2nc(N[C@@H]3C[C@H]4CC[C@@H](C3)N4S(=O)(=O)c3cccnc3)nc3sccc23)n[nH]1` [Embodiment 265, N^4-(5-methyl-1H-pyrazol-3-yl)-N^2-((3-exo)-8(pyridin-3ylsulfonyl)-8-azabicyclo[3.2.1]oct-3-yl)thieno[2,3-d]pyrimidin-2,4-diamine] yielded an IC50 (JAK1) of 1.29 nM, an IC50 [1] of 20.4 nM and an IC50 (TYK2) of 1 nM. It also gave an IC50 (JAK3) of 170 nM and an IC50 (JAK2) of 1.81 nM.

Work on `Cc1cc(Nc2nc(N[C@@H]3C[C@H]4CC[C@@H](C3)N4CCC#N)nc3[nH]ccc23)n[nH]1` [Embodiment 3, 3-((3-exo)-3-((4-((5-methyl-1H-pyrazol-3-yl)amino)-7H-pyrrolo[2,3-d]pyrimidin-2-yl)amino)-8-azabicyclo[3.2.1]oct-8-yl)propionitrile] yielded an IC50 (JAK1) of 0.11 nM, an IC50 [1] of 4.5 nM and an IC50 (TYK2) of 0.17 nM. The IC50 (JAK3) was 0.81 nM and the IC50 (JAK2) was 0.29 nM.

Molecule `Cc1cc(Nc2nc(N[C@@H]3C[C@H]4CC[C@@H](C3)N4CCC#N)nc3cc[nH]c23)n[nH]1` [Embodiment 40, 3-((3-exo)-3-((4-((5-methyl-1H-pyrazol-3-yl)amino)-5H-pyrrolo[3,2-d]pyrimidin-2-yl)amino)-8-azabicyclo[3.2.1]oct-8-yl)pronionitrile] has an IC50 (JAK1) of 0.83 nM, an IC50 [1] of 17.4 nM and an IC50 (TYK2) of 1.01 nM. For the same molecule, the IC50 (JAK3) was 8.78 nM and the IC50 (JAK2) was 0.77 nM.

Molecule `COc1ccc2c(Nc3cc(C)[nH]n3)nc(N(C)[C@@H]3C[C@H]4CC[C@@H](C3)N4S(=O)(=O)N3CC(C#N)C3)nc2c1` [Embodiment 218, 1-(((3-exo)-3-((7-methoxyl-4-((5-methyl-1H-pyrazol-3-yl)amino)quinazolin-2-yl)(methyl)amino)-8-azabicyclo[3.2.1]oct-8-yl)sulfonyl)azetindin-3-formonitrile] has an IC50 (JAK1) of 0.27 nM, an IC50 [1] of 61.5 nM and an IC50 (TYK2) of 0.4 nM. The IC50 (JAK3) was 19.6 nM and the IC50 (JAK2) was 1.05 nM.

`Cc1cc(Nc2cc3ncccc3c(N[C@@H]3C[C@@H]4CN(CCC#N)C[C@@H]4C3)n2)n[nH]1` [Embodiment 5, 3-(cis-5-((7-((5-methyl-1H-pyrazol-3-yl)amino)-1,6-diazanaphthalen-5-yl)amino)hexahydrocyclopentadieno[c]pyrrole-2(1H)-yl)propionitrile] gave an IC50 (JAK1) of 0.85 nM, an IC50 [1] of 4.12 nM and an IC50 (TYK2) of 4.44 nM. The IC50 (JAK3) was 26.5 nM and the IC50 (JAK2) was 1.39 nM.

In the case of `COc1ccc2c(Nc3cc(C)[nH]n3)nc(N[C@@H]3C[C@H]4CCC[C@@H](C3)N4S(=O)(=O)N3CC(C#N)C3)nc2c1` [Embodiment 219, 1-(((3-exo)-3-((7-methoxyl-4-((5-methyl-1H-pyrazol-3-yl)amino)quinazolin-2-yl)amino)-9-azabicyclo[3.3.1]non-9-yl)sulfonyl)azetindin-3-formonitrile], the IC50 (JAK1) is reported as 0.09 nM, the IC50 [1] is reported as 117 nM and the IC50 (TYK2) is reported as 0.13 nM. It also gave an IC50 (JAK3) of 2.61 nM and an IC50 (JAK2) of 0.76 nM.
